{"source": "paper PMC2031891", "about": "“The cyclic nucleotide gated cation channel AtCNGC10 traffics from the ER via Golgi vesicles to the plasma membrane of Arabidopsis root and leaf cells” (BMC Plant Biology, 2007)", "molecular_target": "T1, AtCNGC10 (AtCNGC10-GFP) (Arabidopsis thaliana, UniProt Q9LNJ0)", "T1 construct": "gene CNGC10; full-length cDNA fused to EGFP (pNC10kozG) or to EGFP and FLAG (pTGC10F), transiently expressed in HEK293", "T1 sequence (Q9LNJ0 1-711)": "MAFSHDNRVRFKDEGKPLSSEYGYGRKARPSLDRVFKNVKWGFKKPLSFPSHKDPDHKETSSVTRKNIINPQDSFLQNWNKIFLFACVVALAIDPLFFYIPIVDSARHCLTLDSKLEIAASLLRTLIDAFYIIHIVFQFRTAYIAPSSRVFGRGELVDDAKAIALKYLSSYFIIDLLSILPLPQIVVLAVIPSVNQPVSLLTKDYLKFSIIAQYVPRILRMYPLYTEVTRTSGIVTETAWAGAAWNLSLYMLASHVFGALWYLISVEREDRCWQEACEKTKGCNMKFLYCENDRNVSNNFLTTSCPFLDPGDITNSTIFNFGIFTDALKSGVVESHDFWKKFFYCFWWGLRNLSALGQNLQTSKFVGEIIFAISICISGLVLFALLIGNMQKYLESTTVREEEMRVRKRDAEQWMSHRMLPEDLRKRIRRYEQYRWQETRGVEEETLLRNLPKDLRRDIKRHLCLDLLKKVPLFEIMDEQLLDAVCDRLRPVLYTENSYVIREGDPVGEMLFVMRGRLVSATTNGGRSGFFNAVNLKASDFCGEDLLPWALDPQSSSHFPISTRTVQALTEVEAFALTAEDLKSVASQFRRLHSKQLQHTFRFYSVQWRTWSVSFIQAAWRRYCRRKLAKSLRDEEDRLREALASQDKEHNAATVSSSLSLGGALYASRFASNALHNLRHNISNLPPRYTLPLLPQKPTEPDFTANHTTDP", "assay": "whole-cell patch clamp, HEK293", "assay_type": "cell-based", "details": "100 uM in bath; 145 mM K+ out / 145 mM N-methyl-D-glucamine in; pH 7.4 bath, 25 C; activator; control was non-transfected cells, no record without the nucleotide described", "data": [{"smiles": "CCCC(=O)Nc1nc2c(ncn2[C@@H]2O[C@@H]3COP(=O)(O)O[C@H]3[C@H]2OC(=O)CCC)c(=O)[nH]1", "note": "[dibutyryl cGMP]", "values": [{"measurement": "whole-cell patch clamp, HEK293", "result": "heterologously expressed AtCNGC10 conducted significant inward K^+ currents with the application of dibutyryl cGMP"}]}]}
